Kd and EC50 data for 12 compounds are collected here from US10947252B2, “Inhibitors of KEAP1-Nrf2 protein-protein interaction” (Janssen Pharmaceutica NV, priority 2018, dated 2021).

The target of assay [1] is Kelch domain of human KEAP1 (321-624 aa) (Homo sapiens (Human), UniProt Q14145). Put plainly: KEAP1 KELCH ThermoFluor binding assay.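 Further: Ligand-induced melting temperature shift of E. coli-expressed KEAP1 Kelch protein, Kd estimated from concentration-response curves of ΔTm.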 As to conditions: KEAP Kelch […], 1,8-ANS, pH 7.0, average of results obtained, read-out: Tf Kd. A general note: Differential scanning fluorimetry follows unfolding on heating by fluorescence.
The subject of assay [2] is Glo-Response ARE-luc2P HEK293 cell line. Put plainly: ARE luciferase reporter cell-based assay.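 Further: luciferase signal tracks Nrf2 activation of the ARE once compounds disrupt KEAP1-Nrf2 binding, read with One-Glo reagent, DMSO serving as low control.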 As to conditions: Homo sapiens, HEK293, 24 h, average of results obtained. A general note: A reporter such as luciferase makes a cellular process visible.

Chain of Kelch domain of human KEAP1 (321-624 aa) (Q14145 321-624): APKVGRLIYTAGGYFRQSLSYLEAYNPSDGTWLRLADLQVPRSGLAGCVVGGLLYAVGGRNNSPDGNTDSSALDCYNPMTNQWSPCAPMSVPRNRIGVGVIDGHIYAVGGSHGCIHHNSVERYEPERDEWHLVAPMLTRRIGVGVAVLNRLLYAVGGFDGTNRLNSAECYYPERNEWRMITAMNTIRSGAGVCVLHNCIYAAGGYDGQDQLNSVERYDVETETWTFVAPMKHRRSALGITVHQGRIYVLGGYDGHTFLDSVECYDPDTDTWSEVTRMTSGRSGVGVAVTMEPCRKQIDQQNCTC

In general, Kd refers to the constant that tells how readily two partners part at equilibrium. As a reminder, the EC50 is the concentration needed to bring the measured effect to its halfway point. Read a high EC50 as weaker potency. Regarding `Cc1ccc([C@@H](CC(=O)O)c2ccc3c(nnn3CC3CC3)c2C)cc1CN1C[C@@]2(C)CCCN2c2ncccc2S1(=O)=O` (single isomer, unassigned) [Example 81, (*R)-3-(1-(Cyclopropylmethyl)-4-methyl-1H-benzo[d][1,2,3]triazol-5-yl)-3-(4-methyl-3-(((*R)-7a-methyl-5,5-dioxido-7a,8,9,10-tetrahydropyrido[2,3-f]pyrrolo[2,1-d][1,2,5]thiadiazepin-6(7H)-yl)methyl)phenyl)propanoic Acid], the Kd in assay [1] was 0.0055 µM. The compound further came in with an EC50 in assay [2] of 0.176 µM.
With `Cc1cc2cc(C(CC(=O)O)c3ccc(C)c(CN4C[C@@H]5CCCN5c5ncccc5S4(=O)=O)c3)n(C)c2nn1` (mixture of isomers) [Example 437, 3-(3,7-Dimethyl-7H-pyrrolo[2,3-c]pyridazin-6-yl)-3-(3-(((S)-5,5-dioxido-7a, 8,9,10-tetrahydropyrido[2,3-f]pyrrolo[2,1-d][1,2,5]thiadiazepin-6(7H)-yl)methyl)-4-methylphenyl)propanoic Acid], the Kd in assay [1] is 0.00184 µM. Further, the EC50 in assay [2] came out at 4.38 µM.
As for `CC[C@@H]1CN(Cc2cc([C@H](CC(=O)O)c3ccn4c(C(F)(F)F)nnc4c3C)ccc2C)S(=O)(=O)c2cccnc2O1` (single isomer, unassigned) [Example 189, (*S)-3-(3-(((R)-4-Ethyl-1,1-dioxido-3,4-dihydro-2H-pyrido[2,3-b][1,4,5]oxathiazepin-2-yl)methyl)-4-methylphenyl)-3-(8-methyl-3-(trifluoromethyl)-[1,2,4]triazolo[4,3-a]pyridin-7-yl)propanoic Acid], in assay [1], the Kd is less than 0.001 µM. In addition, the EC50 in assay [2] came out at 0.011 µM.
Regarding `Cc1ccc([C@@H](c2ccn3c(C(F)(F)F)nnc3c2C)C(C)(C)C(=O)O)cc1CN1CC2(CC2)Oc2nc(OCCN3CCCC3)ccc2S1(=O)=O` (single isomer, unassigned) [Example 598, (*S)-3-(3-((1′,1′-dioxido-7′-(2-(pyrrolidine-1-yl)ethoxy)spiro[cyclopropane-1,4′-pyrido[2,3-b][1,4,5]oxathiazepin]-2′(3′H)-yl)methyl)-4-methylphenyl)-2,2-dimethyl-3-(8-methyl-3-(trifluoromethyl)-[1,2,4]triazolo[4,3-a]pyridine-7-yl)propanoic Acid], the Kd in assay [1] is less than 0.001 µM. The EC50 in assay [2] stood at 0.00885 µM.
As for `Cc1ncc([C@H](CC(=O)O)c2ccn3c(C(F)(F)F)nnc3c2C)cc1CN1CC2(CCOCC2)Oc2ncccc2S1(=O)=O` (single isomer, unassigned) [Example 564, (*R)-3-(5-((1′,1′-Dioxido-2,3,5,6-tetrahydrospiro[pyran-4,4′-pyrido[2,3-b][1,4,5]oxathiazepin]-2′(3′H)-yl)methyl)-6-methylpyridin-3-yl)-3-(8-methyl-3-(trifluoromethyl)-[1,2,4]triazolo[4,3-a]pyridin-7-yl)propanoic Acid], the Kd in assay [1] worked out at 0.323 µM. This compound also displayed an EC50 in assay [2] greater than 20 µM.
On to `Cc1ccc([C@H](c2ccc3c(nnn3CC3CC3)c2C)C(C)(C)C(=O)O)nc1CN1CC2(CCOCC2)Oc2nc(OCCN3CCOCC3)ccc2S1(=O)=O` (single isomer, unassigned) [Example 329, (*R)-3-(1-(Cyclopropylmethyl)-4-methyl-1H-benzo[d][1,2,3]triazol-5-yl)-2,2-dimethyl-3-(5-methyl-6-((7′-(2-morpholinoethoxy)-1′,1′-dioxido-2,3,5,6-tetrahydrospiro[pyran-4,4′-pyrido[2,3-b][1,4,5]oxathiazepin]-2′(3′H)-yl)methyl)pyridin-2-yl)propanoic Acid], for which the Kd in assay [1] came out at 1.88 µM. The same compound yielded an EC50 in assay [2] of 1.9 µM.
Consider `Cc1c([C@H](CC(=O)O)c2ccc(Cl)c(CN3CC4CCCCN4c4ncccc4S3(=O)=O)c2)ccn2c(C(F)(F)F)nnc12` (single isomer, unassigned) [Example 85, (*R)-3-(4-Chloro-3-(((*S)-5,5-dioxido-7,7a,8,9,10,11-hexahydro-6H-dipyrido[2,1-d:2′,3′-f][1,2,5]thiadiazepin-6-yl)methyl)phenyl)-3-(8-methyl-3-(trifluoromethyl)-[1,2,4]triazolo[4,3-a]pyridine-7-yl)propanoic Acid], for which the Kd in assay [1] worked out at 0.0022 µM. Further, a half-maximal response in assay [2] (EC50) required 1.51 µM.
Take `Cc1cnc2c(c1)S(=O)(=O)N(Cc1nc(C(CC(=O)O)c3ccn4c(C(F)(F)F)nnc4c3C)ccc1C)C[C@H]1CCCCN21` (stereo in doubt) [Example 490, 3-(8-Methyl-3-(trifluoromethyl)-[1,2,4]triazolo[4,3-a]pyridin-7-yl)-3-(5-methyl-6-(((*R)-3-methyl-5,5-dioxido-7,7a,8,9,10,11-hexahydro-6H-dipyrido[2,1-d:2′,3′-f][1,2,5]thiadiazepin-6-yl)methyl)pyridin-2-yl)propanoic Acid]: in assay [1], the dissociation constant Kd was less than 0.001 µM. Further, the midpoint of the response in assay [2], the EC50, lay at 0.00585 µM.
Turning to `CCn1nnc2c(C)c(C(CC(=O)O)c3ccc(C)c(CN4CC5(CCOCC5)Oc5ccc(F)cc5S4(=O)=O)n3)ccc21` (single isomer, unassigned) [Example 419, (*R)-3-(1-ethyl-4-methyl-1H-benzo[d][1,2,3]triazol-5-yl)-3-(6-((8-fluoro-1,1-dioxido-2′,3′,5′,6′-tetrahydrospiro[benzo[b][1,4,5]oxathiazepine-4,4′-pyran]-2(3H)-yl)methyl)-5-methylpyridin-2-yl)propanoic Acid], the Kd in assay [1] is less than 0.001 µM. The EC50 in assay [2] stood at 0.00415 µM.
On to `Cc1ncc([C@H](c2ccn3c(C(F)(F)F)nnc3c2C)C(C)(C)C(=O)O)cc1CN1C[C@@H]2CCCCN2c2ncc(C#N)cc2S1(=O)=O` (single isomer, unassigned) [Example 657, (*S)-3-(5-(((*S)-3-Cyano-5,5-dioxido-7,7a,8,9,10,11-hexahydro-6H-dipyrido[2,1-d:2′,3′-f][1,2,5]thiadiazepin-6-yl)methyl)-6-methylpyridin-3-yl)-2,2-dimethyl-3-(8-methyl-3-(trifluoromethyl)-[1,2,4]triazolo[4,3-a]pyridin-7-yl)propanoic Acid], for which the Kd in assay [1] was less than 0.001 µM. Further, the EC50 in assay [2] came to 0.075 µM.
As for `CCn1nnc2c(C)c([C@@H](c3ccc(C)c(CN4CC5(CCOCC5)Oc5ncccc5S4(=O)=O)n3)C(C)(C)C(=O)O)ccc21` (single isomer, unassigned) [Example 556, (*R)-3-(6-((1′,1′-Dioxido-2,3,5,6-tetrahydrospiro[pyran-4,4′-pyrido[2,3-b][1,4,5]oxathiazepin]-2′(3′H)-yl)methyl)-5-methylpyridin-2-yl)-3-(1-ethyl-4-methyl-1H-benzo[d][1,2,3]triazol-5-yl)-2,2-dimethylpropanoic Acid], the Kd in assay [1] came out at 4.94 µM. The midpoint of the response in assay [2], the EC50, lay at 1.75 µM.
As for `Cc1ccc(C(CC(=O)O)c2ccc3c(nnn3CC3CC3)c2C)cc1CN1C[C@@]2(C)CCCN2c2ncccc2S1(=O)=O` (stereo in doubt) [Example 80, 3-(1-(Cyclopropylmethyl)-4-methyl-1H-benzo[d][1,2,3]triazol-5-yl)-3-(4-methyl-3-(((*R)-7a-methyl-5,5-dioxido-7a,8,9,10-tetrahydropyrido[2,3-f]pyrrolo[2,1-d][1,2,5]thiadiazepin-6(7H)-yl)methyl)phenyl)propanoic Acid], the Kd in assay [1] is 0.008 µM. The EC50 in assay [2] turned out to be 0.306 µM.
